Data on four molecules can be found in EP2119434A1, “Use of heterosidic flavonoid derivatives for therapy of stem cell cancers” (INSTITUT NATIONAL DE LA SANTE ET DE LA RECHERCHE MEDICALE …, priority 2008, dated 2009).

This assay deals with U937. The assay can be described thus: Adhesion and cytotoxic assay (CAM-DR protocol, fibronectin), cell viability. The format is cell-based. As to conditions: in vitro, adherent U937 (not shown). From the text: Fresh AML cells were obtained from bone marrow of patients upon informed consent, using Ficoll-Hypaque density-gradient centrifugation. […] For in vitro experiments, blasts were resuspended in IMDM. All patients were diagnosed according to WHO classification at the Hematology Department of Toulouse University Hospital (France). Normal bone marrow CD34+ and CD34- hematopoietic cells were harvested from healthy volunteers upon informed consent and obtained after positive selection of CD34-expressing cells by the means of immunomagnetic separation column (Miltenyi Biotech, Bergisch Gladbach, Germany). Fresh blood samples were collected from healthy adult donors and PBMC (Peripheral Blood Mononuclear Cells) were prepared on a Ficoll-Paque density gradient by centrifugation (800 g, 30 min at room temperature).
Adhesion assays were performed in 96-well plates coated overnight at 4°C with 40 µg/mL of human fibronectin (Roche Molecular Biochemicals, Mannheim, Germany) in a final volume of 50 µL in PBS. Each well was blocked with 1% fatty acid-free BSA in PBS, 1 h at room temperature and washed with PBS before seeding the cells. Cells were diluted at 3x10^5/mL overnight and then were serum starved for 1 h at 1x10^6/mL, incubated or not with plant extract/fraction and purified alkaloid or flavonoid compounds. Control assays were treated with corresponding solvents (water, water/ethanol, DMSO) at a 1/100 dilution. Cells were then allowed to adhere on fibronectin (10^5 cells/well) for 1 h at 37°C or maintained in suspension. In some experiments, both cells in suspension and adherent were treated with 0.5 µM daunorubicin (DNR) (Laboratoire Roger Bellon, Neuilly-sur-Seine, France) for 1 h at 37°C. At the end of the incubation period, cells were washed and incubated in serum containing medium for 24 h at 37°C. Cell viability was then quantified by methyl thiazolyl tetrazolium (MTT) assay (Sigma) or by the Annexin V-FITC detection kit from BD PharMingen. Experiments were performed in triplicate and results were evaluated as the percentage of surviving cells compared to the control group.
Aqueous extracts were prepared from dried H. scoparia leaves and serial dilutions were assayed for cytotoxicity over leukemic cells either in suspension or in adhesion following CAM-DR protocol.
Consider `NCC(O)c1ccc(O)cc1` (stereo not shown) [norsynephrine], for which the “specific proapoptotic effect on adherent U937 cells” value is recorded as “none of these compounds displayed a specific proapoptotic effect”.
Regarding `COc1cc(O)c2c(=O)c(O)c(-c3ccc(O)c(O)c3)oc2c1` [rhamnetin], the “specific proapoptotic effect on adherent U937 cells” value is reported as “none of these compounds displayed a specific proapoptotic effect”.
In the case of `NCCc1c[nH]c2ccccc12` [tryptamine] it was “none of these compounds displayed a specific proapoptotic effect”; in that of N-methylisosalsoline, “none of these compounds displayed a specific proapoptotic effect”.
